Results reported in patent publication US20130189775A1, “MODULATION OF THE […] RECEPTOR mTOR TO INHIBIT STEM CELL DIFFERENTIATION INTO NEURONS” (priority 2011, published 2013).
Entries after “also recorded” stand apart in the source; their conditions may differ.

Columns and labels:
ReN cells [1] = assay: Epic label-free RWG biosensor receptor assay on ReN cells; type: cell-based, human; settings: Epic single step assay; for agonist response of differentiated cells: ReN cells differentiated without rapamycin (FIG. 6); for agonist response profile, undifferentiated versus differentiated cells: ReN cells (FIG. 6)
Protocol: The label-free biosensor assays for various receptors was done in the presence of various concentrations of a typical agonist using Corning Epic® system. Assay on undifferentiated cells was carried out simultaneously. […] Undifferentiated receptor profiles were similar to rapamycin treated cells indicating the blockage of differentiation by rapamycin.
ReN Cells were treated with or without rapamycin (5 μM) for 6 days. Cells were washed with HBSS and loaded onto Epic instrument for a single step assay with various receptor agonists. Undifferentiated cells grown for 3-4 days (till confluency) and run of Epic instrument as described above.

ReN cells [2] = assay: ReN cell neural progenitor differentiation, phase contrast microscopy; type: cell-based, human; settings: for block of neural progenitor differentiation by PI3-K / Akt inhibitors: ReN cells differentiated in presence of inhibitor for 6-7 days (FIG. 3, FIG. 4)
Protocol: To evaluate the role of kinases in the differentiation of neural stem cells, we added kinase inhibitors from the BIOMOL kinase inhibitor library to the culture during the differentiation process. Kinase inhibitors were replaced on alternate days during media change. Cultures were grown for 6-7 days. We used phase contrast imaging and immunocytochemistry to understand the difference in the morphological differentiation.
General procedure for neuronal stem cell culture on laminin surface: • 96 well CellBind™ treated plates were washed with 70% ethanol and kept ON in the hood • Next day morning, plates were washed twice with 1×PBS • Laminin (50 μl, 20 μg/ml) was added to the wells and incubated 37° C. incubator for 5 hrs. • Wells were washed with 1×PBS after incubation. • Cells were seeded at 20,000 cells/well • For undifferentiated cells, the cultures were grown for 9 days. Media was changed everyday with growth factor supplementation • For differentiated cells, the growth factor deprived media was added after next day after seeding and cells were grown further for 6 days with media changes every other day. • Rapamycin and other inhibitors were added to the cells when the media was changed to growth factor independent media. Media was maintained throughout the study and changed on alternate days. ReNcell NSC Maintenance Medium contains DMEM/F12 w/o HEPES, w/L-Glutamine, human serum albumin, human transferrin, putrescine dihydrochloride, human recombinant insulin, L-thyroxine, Tri-iodo-thyronine, progesterone, sodium selenite, heparin, corticosterone. […] The growth factors used were EGF (Epidermal growth factor) and bFGF (Basic fibroblast growth factor).
Kinase inhibitors (1 μM) was added to the cells next day after seeding and replenished during media changes on alternate days. Phase contrast microscopy was done after 6 days as described below. […]
After the experiment, the cells were fixed with 4% paraformaldehyde and washed thrice with 1×PBS. Cells were assessed using a Ziess Axiovert 200M inverted Brightfield/fluorescence microscope.

[3] = test system: quiescent human epidermoid carcinoma A431; assay: EGF-induced DMR response of quiescent A431 cells (optical biosensor); type: cell-based
Excerpt: The DMR signal mediated through a particular target is an integrated and quantifiable signal that is a sum of contributions from mass redistribution occurring at different distances away from the sensor surface. Because of the complex nature of cell signaling, the activation of distinct cell signaling mediated through different targets might result in similar overall DMR signal. However, because of the participation of unique sets of cellular targets for a specific signaling event, the modulation profiles mediated by a predetermined set of selective modulators might provide a means to classify the specificity of cell signaling being activated by a particular stimulus. Therefore, the DMR response can be treated as a unique and perfect readout for systems biology studies of living cells. […] The effect of various known inhibitors/drugs on the DMR response of quiescent A431 cells linked the cell response to mainly the Ras/mitogen-activated protein (MAP) kinase pathway, which primarily proceeds through MEK.
Another biosensor output parameter can be the kinetics of any of the aspects of data output. For example, the rate at the completion of the phase transitions. For example, how fast are the phase transitions completed or how long does it take to complete data output. Another example of the kinetics that can be measured would be the length of time for which an overall phase of the data output takes. Another example is the total duration of time of one or both of the P- and N-DMR phases. Another example is the rate or time in which it takes to acquire the total amplitudes of one or both of the P- and N-DMR phases. Another example can be the transition time τ from the P- to N-DMR phase. The kinetics of both P-DMR and N-DMR events or phases can also be measured. For example, stimulation of human quiescent human epidermoid carcinoma A431 with epidermal growth factor (EGF) results in a dynamic response consisting of at least three phases. […]

NCCCC(=O)O [GABA]
agonist response of differentiated cells (ReN cells [1]): did not responds to these stimuli

NCCc1ccc(O)c(O)c1 [dopamine]
agonist response profile, undifferentiated versus differentiated cells (ReN cells [1]): different profiles

O=C(O)c1ccc2nc(-c3ccccc3)c(-c3ccccc3)nc2c1 [BML-257]
block of neural progenitor differentiation by PI3-K / Akt inhibitors (ReN cells [2]): did not block the neural progenitor differentiation

C[C@@H](N)[C@H]1CC[C@H](C(=O)Nc2ccncc2)CC1 [Y27632]
block of neural progenitor cell differentiation by ROCK inhibitor (ReN cells [2]; Y27632 1 μM, 6-7 days (FIG. 5)): had no effect on the differentiation process; also recorded: did not block neural progenitor cell differentiation

Nc1ncnc2c1ncn2[C@@H]1O[C@H](CO)[C@@H](O)[C@H]1O [Adenosine]
agonist response profile, undifferentiated versus differentiated cells (ReN cells [1]): different profiles

NCCc1c[nH]c2ccc(O)cc12 [serotonin]
agonist response of differentiated cells (ReN cells [1]): did not responds to these stimuli

COc1cc2ncnc(Nc3cccc(Cl)c3)c2cc1OC [AG1478]
suppression of EGF-induced DMR response [3]: fully suppressed

CNC[C@H](O)c1ccc(O)c(O)c1 [epinephrine]
agonist response profile, undifferentiated versus differentiated cells (ReN cells [1]): different profiles

EGF: epidermal growth factor
EC50 ([3]; EGF stimulation, read-out: EC50 from amplitudes of the N-DMR signals): ~1.45 nM
Kd ([3]; EGF stimulation, read-out: Kd from one-phase decay constant κ of the N-DMR signal): 5.76 nM

O=c1[nH]c2ccccc2n1C1CCN(Cc2ccc(-c3[nH]c4cc5ncnc5cc4nc3-c3ccccc3)cc2)CC1 [A6730]
block of neural progenitor differentiation by PI3-K / Akt inhibitors (ReN cells [2]): did not block the neural progenitor differentiation
